N#CCNC(=O)c1cnccc1C(F)(F)F
solubility (mole fraction)
Details	283.15 K	288.15 K	293.15 K	298.15 K	303.15 K	308.15 K	313.15 K	318.15 K	323.15 K
in 1,4-dioxane	–	0.0145	0.0175	0.0208	0.0248	0.0295	0.0348	0.041	0.0482
in THF	0.0263	0.0302	0.0343	0.0387	0.044	0.0502	0.057	0.0645	0.072
in acetone	0.0359	0.041	0.0464	0.0527	0.0595	0.0677	0.0766	0.0871	0.099
in acetonitrile	0.0173	0.0206	0.0245	0.0289	0.034	0.0404	0.0475	0.0557	0.0657
in ethanol	0.00429	0.00546	0.00686	0.00856	0.0107	0.0133	0.0163	0.0202	0.0246
in ethyl acetate	0.00961	0.0114	0.0134	0.0158	0.0182	0.0213	0.0248	0.0288	0.033
in isobutanol	0.00152	0.00202	0.00264	0.00343	0.00441	0.00561	0.0071	0.00885	0.011
in isopropanol	0.00249	0.00328	0.00424	0.00543	0.00696	0.00893	0.0114	0.0144	0.0181
in methanol	0.00943	0.0115	0.0139	0.0168	0.0202	0.0241	0.0286	0.034	0.0402
in n-butanol	0.00298	0.00376	0.00475	0.00589	0.00731	0.00906	0.0111	0.0138	0.0169
in n-butyl acetate	0.00479	0.00572	0.00684	0.00806	0.00932	0.011	0.0128	0.015	0.0173
in n-propanol	0.00267	0.00344	0.00436	0.00552	0.00691	0.00874	0.0109	0.0138	0.0174
